Our source for the IC50 values is patent publication US20240262795A1, “PYRAZINE COMPOUNDS AS INHIBITORS OF FLT3” (Biomea Fusion, Inc., priority 2021, published 2024).

A word on the IC50: it is the midpoint of a concentration-inhibition curve.

The experiment addresses T1, WT FLT3 (Homo sapiens, UniProt P36888).
T1 construct: purchased Invitrogen PR4666C
T1 sequence (P36888 564-993 limits assumed): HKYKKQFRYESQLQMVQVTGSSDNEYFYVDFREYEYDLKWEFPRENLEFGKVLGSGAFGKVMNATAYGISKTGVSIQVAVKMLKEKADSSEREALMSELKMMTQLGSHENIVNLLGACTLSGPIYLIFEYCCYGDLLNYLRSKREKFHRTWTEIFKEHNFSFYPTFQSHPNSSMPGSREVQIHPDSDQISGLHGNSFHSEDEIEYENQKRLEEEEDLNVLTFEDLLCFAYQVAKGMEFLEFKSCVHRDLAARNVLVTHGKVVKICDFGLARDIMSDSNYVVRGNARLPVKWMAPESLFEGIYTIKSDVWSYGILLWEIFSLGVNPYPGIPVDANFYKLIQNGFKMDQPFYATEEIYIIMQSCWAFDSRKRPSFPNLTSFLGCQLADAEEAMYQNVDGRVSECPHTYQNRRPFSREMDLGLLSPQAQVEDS
Briefly: WT FLT3 Lance Ultra TR-FRET kinase assay. In kind it is biochemical. An outline of the steps: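 Lance Ultra TR-FRET with 50 nM ULight-JAK-1 (Tyr1023) peptide, Eu-anti-phosphotyrosine (PT66) detection, in HEPES pH 7.5 buffer at 23° C, 30 min enzyme/compound preincubation. WT: 0.5 nM enzyme, 100 μM ATP, 30 min; ITD: 0.0625 nM, 50 μM ATP, 60 min. IC50 by four-parameter fit of 11-point 3× dilutions.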
`CCc1nc(C(N)=O)c(Nc2cccc(CCNC(=O)CN(C)C(=O)/C=C/CN(C)C)c2)nc1N(C)CC` [Compound 252, (E)-3-((3-(2-(2-(4-(dimethylamino)-N-methylbut-2-enamido)acetamido)ethyl)phenyl)amino)-6-ethyl-5-(ethyl (methyl)amino) pyrazine-2-carboxamide] showed an IC50 of 0.201 to 0.5 nM.

Turning to `CCc1nc(C(N)=O)c(Nc2cccc([C@@H](C)CNC(=O)CN(C)C(=O)/C=C/CN3CCC3)c2)nc1N(C)CC` [Compound 518, (R,E)-3-((3-(1-(2-(4-(azetidin-1-yl)-N-methylbut-2-enamido)acetamido)propan-2-yl)phenyl)amino)-6-ethyl-5-(ethyl(methyl)amino)pyrazine-2-carboxamide], the IC50 lay within 0.201 to 0.5 nM.

`CCc1nc(C(N)=O)c(Nc2cccc(CCNC(=O)[C@H](C)N(C)C(=O)/C=C/CN(C)C)c2)nc1N(C)C(C)C` [Compound 204, (S,E)-3-((3-(2-(2-(4-(dimethylamino)-N-methylbut-2-enamido)propanamido)ethyl)phenyl)amino)-6-ethyl-5-(isopropyl(methyl)amino)pyrazine-2-carboxamide] registered an IC50 of 0.101 to 0.2 nM. The compound `Cc1nc(C(N)=O)c(Nc2cccc(CCNC(=O)[C@H](C)N(C)C(=O)/C=C/CN(C)C)c2)nc1N(C)C(C)C` [Compound 232, (S, E)-3-((3-(2-(2-(4-(dimethylamino)-N-methylbut-2-enamido)propanamido)ethyl)phenyl)amino)-5-(isopropyl (methyl)amino)-6-methylpyrazine-2-carboxamide] registered a concentration for half-maximal inhibition (IC50) of 0.501 to 1 nM. For the compound `CCc1nc(C(N)=O)c(Nc2cccc(CCNC(=O)[C@H](C)N(C)C(=O)/C=C/CN(C)C)c2)nc1NC(C)C` [Compound 205, (S,E)-3-((3-(2-(2-(4-(dimethylamino)-N-methylbut-2-enamido)propanamido)ethyl)phenyl)amino)-6-ethyl-5-(isopropylamino)pyrazine-2-carboxamide], the IC50 is 0.101 to 0.2 nM. Take `CCc1nc(C(N)=O)c(Nc2cccc([C@@H](C)CNC(=O)CN(C)C(=O)/C=C/CN3CCC3)c2)nc1C1CC1` [Compound 506, (R,E)-3-((3-(1-(2-(4-(azetidin-1-yl)-N-methylbut-2-enamido)acetamido)propan-2-yl)phenyl)amino)-5-cyclopropyl-6-ethylpyrazine-2-carboxamide]: the IC50 fell in the range of 0.101 to 0.2 nM.

On to `CCc1nc(C(N)=O)c(Nc2cccc(CCNC(=O)CN(C)C(=O)/C=C/CN3CCC3)c2)nc1OC(C)C` [Compound 603, (E)-3-((3-(2-(2-(4-(azetidin-1-yl)-N-methylbut-2-enamido)acetamido)ethyl)phenyl)amino)-6-ethyl-5-isopropoxypyrazine-2-carboxamide], for which the IC50 is 0.201 to 0.5 nM.

In turn, `CCCc1nc(Nc2cccc([C@@H](C)CNC(=O)CN(C)C(=O)/C=C/CN3CCC3)c2)c(C(N)=O)nc1CC` [Compound 507, (R,E)-3-((3-(1-(2-(4-(azetidin-1-yl)-N-methylbut-2-enamido)acetamido)propan-2-yl)phenyl)amino)-6-ethyl-5-propylpyrazine-2-carboxamide] had an IC50 of 0.201 to 0.5 nM. In turn, `CCc1nc(Nc2cccc([C@@H](C)CNC(=O)CN(C)C(=O)/C=C/CN3CCC3)c2)c(C(N)=O)nc1CC` [Compound 508, (R, E)-3-((3-(1-(2-(4-(azetidin-1-yl)-N-methylbut-2-enamido)acetamido)propan-2-yl)phenyl)amino)-5,6-diethylpyrazine-2-carboxamide] displayed an IC50 of 0.501 to 1 nM. Regarding `CCc1nc(C(N)=O)c(Nc2ccnc(CCNC(=O)[C@H](C)N(C)C(=O)/C=C/CN(C)C)c2)nc1N(C)C(C)C` [Compound 605, (S, E)-3-((2-(2-(2-(4-(dimethylamino)-N-methylbut-2-enamido)propanamido)ethyl)pyridin-4-yl)amino)-6-ethyl-5-(isopropyl (methyl)amino) pyrazine-2-carboxamide], the IC50 fell in the range of 0.201 to 0.5 nM. Then `CCc1nc(C(N)=O)c(Nc2cccc(CCNC(=O)[C@H](C)N(C)C(=O)/C=C/CNC)c2)nc1N(C)C(C)C` [Compound 307, (S,E)-6-ethyl-5-(isopropyl(methyl)amino)-3-((3-(2-(2-(N-methyl-4-(methylamino)but-2-enamido)propanamido)ethyl)phenyl)amino)pyrazine-2-carboxamide], with 0.201 to 0.5 nM; and `CCc1nc(C(N)=O)c(Nc2cccc(CCNC(=O)CN(C)C(=O)/C=C/CN3CCC3)c2)nc1N(C)CC` [Compound 516A, (E)-3-((3-(2-(2-(4-(azetidin-1-yl)-N-methylbut-2-enamido)acetamido)ethyl)phenyl)amino)-6-ethyl-5-(ethyl(methyl)amino) pyrazine-2-carboxamide], with 0.501 to 1 nM; and `CCOc1nc(Nc2cccc(CCNC(=O)CN(C)C(=O)/C=C/CN3CCC3)c2)c(C(N)=O)nc1CC` [Compound 602, (E)-3-((3-(2-(2-(4-(azetidin-1-yl)-N-methylbut-2-enamido)acetamido)ethyl)phenyl)amino)-5-ethoxy-6-ethylpyrazine-2-carboxamide], with 0.201 to 0.5 nM. In turn, `CCc1nc(C(N)=O)c(Nc2ccnc(CCNC(=O)[C@H](C)N(C)C(=O)/C=C/CN(C)C)c2)nc1C1CC1` [Compound 310, (S,E)-5-cyclopropyl-3-((2-(2-(2-(4-(dimethylamino)-N-methylbut-2-enamido)propanamido)ethyl)pyridin-4-yl)amino)-6-ethylpyrazine-2-carboxamide] registered an IC50 of 0.501 to 1 nM. Consider `CCc1nc(C(N)=O)c(Nc2cc(F)cc(CCNC(=O)CN(C)C(=O)/C=C/CN3CCC3)c2)nc1C1CC1` [Compound 516, (E)-3-((3-(2-(2-(4-(azetidin-1-yl)-N-methylbut-2-enamido)acetamido)ethyl)-5-fluorophenyl)amino)-5-cyclopropyl-6-ethylpyrazine-2-carboxamide], for which the IC50 lay within 0.201 to 0.5 nM.

`Cc1nc(C(N)=O)c(Nc2cccc(CCNC(=O)CN(C)C(=O)/C=C/CN(C)C)c2)nc1N(C)C(C)C` [Compound 250, (E)-3-((3-(2-(2-(4-(dimethylamino)-N-methylbut-2-enamido)acetamido)ethyl)phenyl)amino)-5-(isopropyl(methyl)amino)-6-methylpyrazine-2-carboxamide] displayed a 50% inhibitory concentration (IC50) of 0.201 to 0.5 nM.
